Measurements from patent US20060122153A1, “Antineoplastic ether lipid compounds with modifications at the sn-2 carbon” (priority 2003, published 2006).

Legend:
Assay type in all cases: cell-based, human
U937 = assay: In vitro growth inhibition (GI50), cell growth assay; settings: U937 tumor cell line, 3 days
Description: After 3 days of incubation, cell growth was determined.
To determine the Growth Inhibition in the suspension cell lines, cell numbers were directly counted instead of using the SRB assay which determines the total cell protein. One day prior to the drug treatment, 40,000 cells per well were seeded into 24-well plates in a volume of 0.5 mL. Stock solutions were diluted with complete medium to twice the desired final concentrations, and then 0.5 mL aliquots of each dilution were added to the designated wells. After 3 days incubation, cell growth was determined by counting cell number using a coulter counter (Z-M, coulter). Cell counts were-also taken at time 0 and subtracted from the test results to give net growth.

786-0 = assay: NCI growth inhibition screen, renal panel; set-up: key: = means equivalent activity; + means that it appears to be significantly better (i.e., by ˜2x); < means it appears to be less active than ET18OCH3 (˜2x); a combination like =/+ or </+ means that activity is dependent upon the isomer; a combination like =/+ or </+ means that activity is dependent upon the isomer; settings: 786-0, Renal; from GI50s
Description: (§1) Candidates deemed suitable for in vivo testing were then synthesized in large scale quantities and some of this material was sent to the NCI's Developmental Therapeutics Program for a battery of growth inhibitory studies against various human tumor cell lines (60 cell lines, 9 different panels). The remainder of the material was used to assess in vivo efficacy using murine tumor models. Additionally, studies were conducted on the lead candidates to discern mechanism of action with particular emphasis on these agents apoptotic ability as measured by caspase 3 activity. The details (materials and methods) for these various assays are described further in the following discussion.
(§2) Ten compounds were also sent to NCI's Drug Discovery Program for screening against numerous human tumor cell lines (9 panels total: renal ovarian, colon, CNS, non-small cell lung, leukemia, breast, melanoma, and prostate). The data are shown in FIGS. 2a-i which also include data regarding D- and L-ET-18-OCH3 (listed as L-EL and D-EL in the figures). Upon examining the data, one is struck by how 1R and 1a′S standout in comparison to the other compounds, especially for the renal, ovarian, colon, and CNS panels.

A498 = assay: NCI growth inhibition screen, renal panel; set-up: key: = means equivalent activity; + means that it appears to be significantly better (i.e., by ˜2x); < means it appears to be less active than ET18OCH3 (˜2x); a combination like =/+ or </+ means that activity is dependent upon the isomer; a combination like =/+ or </+ means that activity is dependent upon the isomer; settings: from GI50s
Description: as §1, §2

ACHIN = assay: NCI growth inhibition screen, renal panel; set-up: key: = means equivalent activity; + means that it appears to be significantly better (i.e., by ˜2x); < means it appears to be less active than ET18OCH3 (˜2x); a combination like =/+ or </+ means that activity is dependent upon the isomer; a combination like =/+ or </+ means that activity is dependent upon the isomer; settings: from GI50s
Description: as §1, §2

CAK-1 = assay: NCI growth inhibition screen, renal panel; set-up: key: = means equivalent activity; + means that it appears to be significantly better (i.e., by ˜2x); < means it appears to be less active than ET18OCH3 (˜2x); a combination like =/+ or </+ means that activity is dependent upon the isomer; a combination like =/+ or </+ means that activity is dependent upon the isomer; settings: CAK-1, Renal; from GI50s
Description: as §1, §2

RXF 393 = assay: NCI growth inhibition screen, renal panel; set-up: key: = means equivalent activity; + means that it appears to be significantly better (i.e., by ˜2x); < means it appears to be less active than ET18OCH3 (˜2x); a combination like =/+ or </+ means that activity is dependent upon the isomer; a combination like =/+ or </+ means that activity is dependent upon the isomer; settings: RXF 393, Renal; from GI50s
Description: as §1, §2

SN12C = assay: NCI growth inhibition screen, renal panel; set-up: key: = means equivalent activity; + means that it appears to be significantly better (i.e., by ˜2x); < means it appears to be less active than ET18OCH3 (˜2x); a combination like =/+ or </+ means that activity is dependent upon the isomer; a combination like =/+ or </+ means that activity is dependent upon the isomer; settings: from GI50s
Description: as §1, §2

TK-10 = assay: NCI growth inhibition screen, renal panel; set-up: key: = means equivalent activity; + means that it appears to be significantly better (i.e., by ˜2x); < means it appears to be less active than ET18OCH3 (˜2x); a combination like =/+ or </+ means that activity is dependent upon the isomer; a combination like =/+ or </+ means that activity is dependent upon the isomer; settings: TK-10, Renal; from GI50s
Description: as §1, §2

DU145 = assay: NCI growth inhibition screen, prostate panel; set-up: key: = means equivalent activity; + means that it appears to be significantly better (i.e., by ˜2x); < means it appears to be less active than ET18OCH3 (˜2x); a combination like =/+ or </+ means that activity is dependent upon the isomer; a combination like =/+ or </+ means that activity is dependent upon the isomer; settings: from GI50s
Description: as §1, §2

PC-3 = assay: NCI growth inhibition screen, prostate panel; set-up: key: = means equivalent activity; + means that it appears to be significantly better (i.e., by ˜2x); < means it appears to be less active than ET18OCH3 (˜2x); a combination like =/+ or </+ means that activity is dependent upon the isomer; a combination like =/+ or </+ means that activity is dependent upon the isomer; settings: PC-3, Prostate; from GI50s
Description: as §1, §2

K-562 = assay: NCI growth inhibition screen, leukemia panel; set-up: key to Performance as compared to ET-18-O—CH3: = means equivalent activity; + means that it appears to be significantly better (i.e., by ˜2x); < means it appears to be less active than ET18OCH3 (˜2x); a combination like =/+ or </+ means that activity is dependent upon the isomer; a combination like =/+ or </+ means that activity is dependent upon the isomer; settings: for Performance as compared to ET-18-O—CH3: K-562, Leukemia, from GI50s
Description: as §1, §2

RPMI-8226 = assay: NCI growth inhibition screen, leukemia panel; set-up: key to Performance as compared to ET-18-O—CH3: = means equivalent activity; + means that it appears to be significantly better (i.e., by ˜2x); < means it appears to be less active than ET18OCH3 (˜2x); a combination like =/+ or </+ means that activity is dependent upon the isomer; a combination like =/+ or </+ means that activity is dependent upon the isomer; settings: for Performance as compared to ET-18-O—CH3: RPMI-8226, Leukemia, from GI50s; for activity (in words): RPMI-8226 cell line, NCI screen
Description: as §1, §2

SMILES	GI50 (U937) [nM]	Performance as compared to ET-18-O—CH3 (786-0)	Performance as compared to ET-18-O—CH3 (A498)	Performance as compared to ET-18-O—CH3 (ACHIN)	Performance as compared to ET-18-O—CH3 (CAK-1)	Performance as compared to ET-18-O—CH3 (RXF 393)	Performance as compared to ET-18-O—CH3 (SN12C)	Performance as compared to ET-18-O—CH3 (TK-10)	Performance as compared to ET-18-O—CH3 (DU145)	Performance as compared to ET-18-O—CH3 (PC-3)	Performance as compared to ET-18-O—CH3 (K-562)	Performance as compared to ET-18-O—CH3 (RPMI-8226)	activity (in words) (RPMI-8226)	activity (in words) (K-562; K-562 cell line, NCI screen)
CCCCCCCCCCCCCCCCCCOC[C@@H](COP(=O)([O-])OCC[N+](C)(C)C)OS(C)(=O)=O [1a′S]	1400	0	0	0	0	32	0	0	0	0	=/+	</+	poor activity	–
CCCCCCCCCCCCCCCCCCOCC(COP(=O)([O-])OCC[N+](C)(C)C)OS(C)(=O)=O (stereo not shown) [Compound 1aR]	1400	=	=	=	=	=	=	=	=	=	=/+	=/+	–	–
CCCCCCCCCCCCCCCCCCOCC(COP(=O)([O-])OCC[N+](C)(C)C)OC [D-ET18OCH3, 1-O-octadecyl-2-O-methyl-glycerophosphocholine, reference compound]	1400	–	–	–	–	–	–	–	–	–	–	–	extremely poor activity	extremely poor activity
